Laboratory results as given in patent US20160138114A1, “Biomarkers of Response to Inhibition of Poly-ADP Ribose Polymerase (PARP) in Cancer” (THE REGENTS OF THE UNIVERSITY OF CALIFORNIA, priority 2013, published 2016).

Tests used:
184B5 = experiment: BMN673 sensitivity (cell growth) in cancer cell line; format: cell-based, human; details: 184B5, Breast
Method: (§1) This example illustrates that CHD1L amplification correlated with overexpression of CHD1L protein. […] CHD1L protein expression in the NSCLC and breast cancer cell lines was assayed by Western blot with antibodies against CHD1L. […] HCC1937 was used as a negative control for CHD1L protein expression, as the cell line carries a loss of heterozygosity (LOH) of CHD1L. Each of these cell lines was also assayed for sensitivity or resistance to inhibition of PARP by BMN673. Briefly, each cell line was cultured and exposed to a range of concentrations of BMN673 to determine an IC50 value of inhibitory effect on PARP (as evidenced by cell growth) for each cell line (see Table 2).

BT-20 = experiment: as above; format: cell-based, human; details: BT-20, Breast
Method: as §1

BT-474 = experiment: as above; format: cell-based, human; details: BT-474, Breast
Method: as §1

CaLu1 = experiment: as above; format: cell-based, human; details: CaLu1, Lung
Method: as §1

EMF192A = experiment: as above; format: cell-based, human; details: Breast
Method: as §1

H1568 = experiment: as above; format: cell-based, human; details: H1568, Lung
Method: as §1

H1651 = experiment: as above; format: cell-based, human; details: H1651, Lung
Method: as §1

H1838 = experiment: as above; format: cell-based, human; details: H1838, Lung
Method: as §1

HCC1187 = experiment: as above; format: cell-based, human; details: HCC1187, Breast
Method: as §1

HCC1937 = experiment: as above; format: cell-based, human; details: HCC1937, Breast
Method: as §1

MCF7 = experiment: as above; format: cell-based, human; details: MCF7, Breast
Method: as §1

MDA-MB-436 = experiment: as above; format: cell-based, human; details: MDA-MB-436, Breast
Method: as §1

184B5 parental cell line = experiment: BMN673 treatment of CHD1L knock-in study, parental line; format: cell-based; details: Homo sapiens, low CHD1L protein expression
Method: (§2) This example illustrates the creation of cell lines overexpressing CHD1L protein by vector knock-in. Briefly, breast cancer cell line 184B5 cells were transduced with lentivirus containing CHD1L cDNA. After transduction, clones transfected with CHD1L were selected with 500 μg/mL G418 for 1 week. Expression of CHD1L protein in the 24 knock-in clones and the parental cell line 184B5 was detected by Western blot. […] This example illustrates that the knock-in of CHD1L protein sensitized breast cancer cells to BMN673 treatment. Briefly, 184B5 knock-in clones 7 and 14 (i.e., cells with high CHD1L protein expression) were treated with BMN673 and compared with the 184B5 parental cell line (i.e., cells with low CHD1L protein expression) treated with BMN673, with respect to percent death from baseline (FIG. 5, top panel) and percent growth inhibition (FIG. 5, bottom panel).

[1] = tested on: 184B5 CHD1L knock-in clone 14; experiment: BMN673 treatment of CHD1L knock-in clone; format: cell-based; details: Homo sapiens; 184B5 knock-in clone 14, high CHD1L protein expression
Method: as §2

[2] = tested on: 184B5 CHD1L knock-in clone 7; experiment: BMN673 treatment of CHD1L knock-in clone; format: cell-based; details: Homo sapiens; 184B5 knock-in clone 7, high CHD1L protein expression
Method: as §2

SMILES: Cn1ncnc1[C@H]1c2n[nH]c(=O)c3cc(F)cc(c23)N[C@@H]1c1ccc(F)cc1 [BMN673]
- Response (184B5): resistant and Res
- IC50 (184B5; Homo sapiens, 1q21 NC): 5480 nM
- Response (BT-20): resistant and Res
- IC50 (BT-20; Homo sapiens, 1q21 NC): 352 nM
- Response (BT-474): resistant and Res
- IC50 (BT-474; Homo sapiens, 1q21 NC): 595 nM
- Response (CaLu1): resistant and Res
- IC50 (CaLu1; Homo sapiens, Calu-1, 1q21 NC): 2560 nM
- Response (EMF192A): resistant and Res
- IC50 (EMF192A; Homo sapiens, 1q21 NC): 897 nM
- Response (H1568): Int
- IC50 (H1568; Homo sapiens, NCI-H1568, 1q21 AMP): 49.8 nM
- Response (H1651): sensitive and Sens
- IC50 (H1651; Homo sapiens, NCI-H1651, 1q21 AMP): 6.31 nM
- Response (H1838): sensitive and Sens
- IC50 (H1838; Homo sapiens, NCI-H1838, 1q21 AMP): 1.2 nM
- Response (HCC1187): sensitive and Sens
- IC50 (HCC1187; Homo sapiens, 1q21 AMP): 1.09 nM
- Response (HCC1937): Int
- IC50 (HCC1937; Homo sapiens, 1q21 LOH): 84.2 nM
- IC50 (MCF7; Homo sapiens, 1q21 AMP): 92.8 nM
- Response (MCF7): sensitive and Int
- IC50 (MDA-MB-436; Homo sapiens, 1q21 AMP): 0.19 nM
- Response (MDA-MB-436): sensitive and Sens
- IC50 (184B5 parental cell line): ~1000 nM
- IC50 [1]: 30 nM
- IC50 [2]: 62 nM
